Data taken from US5344843A, “Cat-1 inhibitors, pharmaceutical compositions and methods of use” (Hoffman-La Roche Inc., priority 1992, dated 1994).
pIC50: −log10 of the molar value. Read-outs that look alike come from different tables or passages of the source.

Target: T1, CAT-1 (carnitine acyltransferase 1) (Rattus norvegicus, UniProt Q63704)
T1 construct: This preparation is used as the isolated mitochondrial preparation; from tissue; host or cells: rat heart (atria removed), isolated mitochondria
T1 sequence (Q63704 1-772): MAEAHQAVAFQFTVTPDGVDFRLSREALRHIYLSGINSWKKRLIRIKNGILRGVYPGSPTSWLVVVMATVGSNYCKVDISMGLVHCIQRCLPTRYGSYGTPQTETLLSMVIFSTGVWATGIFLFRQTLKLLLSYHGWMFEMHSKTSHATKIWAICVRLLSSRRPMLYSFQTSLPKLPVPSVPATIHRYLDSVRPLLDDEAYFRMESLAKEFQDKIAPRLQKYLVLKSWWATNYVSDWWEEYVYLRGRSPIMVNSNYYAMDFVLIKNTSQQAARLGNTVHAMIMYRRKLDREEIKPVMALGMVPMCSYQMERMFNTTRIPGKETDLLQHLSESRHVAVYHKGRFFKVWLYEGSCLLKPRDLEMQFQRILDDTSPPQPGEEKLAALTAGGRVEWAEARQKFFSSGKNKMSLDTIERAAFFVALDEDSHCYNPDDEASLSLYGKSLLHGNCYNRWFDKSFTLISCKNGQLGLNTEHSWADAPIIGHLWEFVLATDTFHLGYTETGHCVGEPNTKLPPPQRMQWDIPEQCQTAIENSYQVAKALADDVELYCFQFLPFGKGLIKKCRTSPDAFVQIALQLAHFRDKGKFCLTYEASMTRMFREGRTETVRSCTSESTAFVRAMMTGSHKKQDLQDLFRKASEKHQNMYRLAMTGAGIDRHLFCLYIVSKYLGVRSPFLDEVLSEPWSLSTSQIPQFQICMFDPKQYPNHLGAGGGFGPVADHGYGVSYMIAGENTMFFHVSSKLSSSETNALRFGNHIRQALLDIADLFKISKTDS
Experiment: Primary Screen--Inhibition of CAT-1 in isolated mitochondria
Type: biochemical

[1] = rat heart mitochondria, reduction of palmitoyl carnitine formation by 50%, read-out: Primary Screen IC50

Compound	pIC50 [1]	pIC50
O=C(O)C(=O)c1ccc(OCCOC2CCc3ccccc3C2)cc1 (racemic) [Example 114, rac.-alpha-oxo-4-[[2-(1,2,3,4-tetrahydro-2-naphthalenyloxy)ethyl]oxy]benzeneacetic acid]	5.55	–
O=C(O)C(=O)c1ccc([S+]([O-])CCOc2ccc3ccccc3c2)cc1 (racemic) [Example 151, rac.-4-[[2-(2-naphthalenyloxy)ethyl]sulfinyl]-alpha-oxobenzeneacetic acid]	5.26	–
CC1(C)OCC(COC(=O)C(=O)c2ccc(OCCOc3ccc4ccccc4c3)cc2)O1 (racemic) [Example 169, rac.-4-[[2-(2-naphthalenyloxy)ethyl]oxy]-alpha-oxobenzeneacetic acid (2,2-dimethyl-1,3-dioxolan-4-yl)methyl ester]	5.46	–
O=C(O)C(F)(F)c1ccc(OCCOc2ccccc2)cc1 [Example 11, alpha, alpha-difluoro-4-[[2-(phenoxy)ethyl]oxy]benzeneacetic acid]	4.74	–
O=C(O)C(=O)c1ccc(OCCCc2ccc(F)cc2)cc1 [Example 27, 4-[[3-(4-fluorophenyl)propyl]oxy]-alpha-oxobenzeneacetic acid]	5.52	–
O=C(O)C(=O)c1ccc(OC/C=C/c2ccc(F)cc2)cc1 [Example 29, (E)-4-[[3-(4-fluorophenyl)-2-propenyl]oxy]-alpha-oxobenzeneacetic acid]	6.60	–
O=C(O)C(=O)c1ccc(OCCOc2ccc(C(F)(F)F)cc2)cc1 [Example 51, alpha-oxo-4-[[2-(4-trifluoromethylphenoxy)ethyl]oxy]benzeneacetic acid]	6.10	–
NS(=O)(=O)c1ccc(OCCOc2ccc(C(=O)C(=O)O)cc2)cc1 [Example 53, 4-[[2-[4-(aminosulfonyl)phenoxy]ethyl]oxy]-alpha-oxobenzeneacetic acid]	5.40	–
O=C(O)C(=O)c1ccc(OCCOc2ccc(C(=O)C(=O)O)cc2)cc1 [Example 55]	5.22	–
COc1ccc(OCCOc2ccc(C(=O)C(=O)O)cc2)cc1OC [Example 63, 4-[[2-(3,4-dimethoxyphenoxy)ethyl]oxy]-alpha-oxobenzeneacetic acid]	5.52	–
COc1cc(OCCOc2ccc(C(=O)C(=O)O)cc2)cc(OC)c1OC [Example 65, 4-[[2-(3,4,5-trimethoxyphenoxy)ethyl]oxy]-alpha-oxobenzeneacetic acid]	5.52	–
O=C(O)C(=O)c1ccc(OCCOCCOc2ccc(C(=O)C(=O)O)cc2)cc1 [Example 78, 4,4'-[oxybis(2,1-ethanedienyloxy)]bis(alpha-oxobenzeneacetic acid)]	5.70	–
COCCOc1ccc(C(=O)C(=O)O)cc1 [Example 97, 4-[[2-(methoxy)ethyl]oxy]-alphaoxobenzeneacetic acid]	4.52	–
O=C(O)C(=O)c1ccc(OCCOc2ccc3cc4ccccc4cc3c2)cc1 [Example 108, 4-[[2-(2-anthracenyloxy)ethyl]oxy]-alpha-oxobenzeneacetic acid]	6.70	–
O=C(O)C(=O)c1ccc(OCCOc2cc3ccccc3c3ccccc23)cc1 [Example 110, alpha-oxo-4-[[2-(9-phenanthrenyloxy)ethyl]oxy]benzeneacetic acid]	–	7.00

The next lines start with results.

pIC50 [1]	Compound	pIC50
5.10	O=C(O)C(=O)c1ccc(OCC(O)COc2ccccc2)cc1 (racemic) [Example 80, rac.-4-[[(2-hydroxy-3-phenoxy)propyl]oxy]-alpha-oxobenzeneacetic acid]	–
4.05	O=C(O)C(=O)c1ccc(OCc2ccccc2)cc1 [Example 19, 4-[(phenylmethyl)oxy]-alpha-oxobenzeneacetic acid]	–
4.92	O=C(O)C(=O)c1ccc(OCCc2ccccc2)cc1 [Example 21, 4-[(2-phenylethyl)oxy]-alpha-oxobenzeneacetic acid]	–
7.00	O=C(O)C(=O)c1ccc(OC/C=C/c2ccccc2)cc1 [Example 31, (E)-alpha-oxo-4-[(3-phenyl-2-propenyl)oxy]benzeneacetic acid]	–
6.00	O=C(O)C(=O)c1ccc(OC/C=C\c2ccccc2)cc1 [Example 33, (Z)-alpha-oxo-4-[(3-phenyl-2-propenyl)oxy]benzeneacetic acid]	–
6.40	O=C(O)C(=O)c1ccc(OCC#Cc2ccccc2)cc1 [Example 35, alpha-oxo-4-[(3-phenyl-2-propynyl)oxy]benzeneacetic acid]	–
6.22	O=C(O)C(=O)c1ccc(OCCOc2ccccc2F)cc1 [Example 39, 4-[[2-(2-fluorophenoxy)ethyl]oxy]-alpha-oxobenzeneacetic acid]	–
6.00	O=C(O)C(=O)c1ccc(OCCOc2cccc(F)c2)cc1 [Example 41, 4-[[2-(3-fluorophenoxy)ethyl]oxy]-alpha-oxobenzeneacetic acid]	–
6.10	O=C(O)C(=O)c1ccc(OCCOc2ccc(F)cc2)cc1 [Example 43, 4-[[2-(4-fluorophenoxy)ethyl]oxy]-alpha-oxobenzeneacetic acid]	–
6.52	O=C(O)C(=O)c1ccc(OCCOc2ccc(Cl)cc2)cc1 [Example 45, 4-[[2-(4-chlorophenoxy)ethyl]oxy]-alpha-oxobenzeneacetic acid]	–
5.52	O=C(O)C(=O)c1ccc(OCCOc2ccc([N+](=O)[O-])cc2)cc1 [Example 47, 4-[[2-(4-nitrophenoxy)ethyl]oxy]-alpha-oxobenzeneacetic acid]	–
5.40	Cc1ccc(OCCOc2ccc(C(=O)C(=O)O)cc2)cc1 [Example 49, 4-[[2-(4-methylphenoxy)ethyl]oxy]-alpha-oxobenzeneacetic acid]	–
5.30	O=C(O)C(=O)c1ccc(OCCOc2ccc(-c3ccccc3)cc2)cc1 [Example 57, 4-[[2-[4-(1,1'-biphenyl)oxy]ethyl]oxy]-alpha-oxobenzeneacetic acid]	–
5.00	O=C(O)C(=O)c1ccc(OCCOc2ccc(Oc3ccccc3)cc2)cc1 [Example 59, alpha-oxo-4-[[2-(4-phenoxyphenoxy)ethyl]oxy]benzeneacetic acid]	–
5.70	COc1ccc(OCCOc2ccc(C(=O)C(=O)O)cc2)cc1 [Example 61, 4-[[2-(4-methoxyphenoxy)ethyl]oxy]-alpha-oxobenzeneacetic acid]	–
4.82	O=C(O)C(=O)c1ccc(OCOc2ccccc2)cc1 [Example 67, alpha-oxo-4-[[(phenoxy)methyl]oxy]benzeneacetic acid]	–
5.70	O=C(O)C(=O)c1ccc(OCCCOc2ccccc2)cc1 [Example 69, alpha-oxo-4-[[(3-phenoxy)propyl]oxy]benzeneacetic acid]	–
5.30	O=C(O)C(=O)c1ccc(OCCCCCOc2ccccc2)cc1 [Example 73, alpha-oxo-4-[[(5-phenoxy)pentyl]oxy]benzeneacetic acid]	–
5.00	O=C(O)C(=O)c1ccc(OCCCCCCOc2ccccc2)cc1 [Example 75, alpha-oxo-4-[[(6-phenoxy)hexyl]oxy]benzeneacetic acid]	–
5.70	O=C(O)C(=O)c1ccc(OCCOCCOc2ccccc2)cc1 [Example 77, 4-[[2-[[2-(phenoxy)ethyl]oxy]ethyl]oxy]-alpha-oxobenzeneacetic acid]	–
5.46	O=C(O)C(=O)c1ccc(OCCCCSc2ccc3ccccc3c2)cc1 [Example 92, 4-[[4-(2-naphthalenylthio)butyl]oxy]-alpha-oxobenzeneacetic acid]	–
